Source: PubChem BioAssay (NCI)
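Cells were grown in 96-well plates and exposed to each compound for 48 hours at five concentrations; endpoints were interpolated linearly between bracketing concentrations, or set to the highest concentration if not reached. GI50 is the concentration that inhibits growth by half. TGI: total growth inhibition.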

Tests used:
Experiment in all cases: DTP human tumour cell line panel, 48 h
786-0 renal = test system: 786-0 renal
A549 NSCLC = test system: A549 NSCLC
IGROV1 ovarian = test system: IGROV1 ovarian
MOLT-4 leukemia = test system: MOLT-4 leukemia
NCI-H522 lung = test system: NCI-H522 lung
OVCAR-3 ovarian = test system: OVCAR-3 ovarian
SF-268 CNS = test system: SF-268 CNS
SNB-19 CNS = test system: SNB-19 CNS
U251 CNS = test system: U251 CNS
UACC-62 melanoma = test system: UACC-62 melanoma

SMILES | GI50 (786-0 renal) [µM] | TGI (786-0 renal) [µM] | GI50 (A549 NSCLC) [µM] | TGI (A549 NSCLC) [µM] | GI50 (IGROV1 ovarian) [µM] | TGI (IGROV1 ovarian) [µM] | GI50 (MOLT-4 leukemia) [µM] | TGI (MOLT-4 leukemia) [µM] | GI50 (NCI-H522 lung) [µM] | TGI (NCI-H522 lung) [µM] | GI50 (OVCAR-3 ovarian) [µM] | TGI (OVCAR-3 ovarian) [µM] | GI50 (SF-268 CNS) [µM] | TGI (SF-268 CNS) [µM] | GI50 (SNB-19 CNS) [µM] | TGI (SNB-19 CNS) [µM] | GI50 (U251 CNS) [µM] | TGI (U251 CNS) [µM] | GI50 (UACC-62 melanoma) [µM] | TGI (UACC-62 melanoma) [µM]
COc1cccc(CC(C)=C(c2ccc(OCCN3CCCCC3)cc2)c2ccc(OCCN3CCCCC3)cc2)c1 | 1.87 | 3.89 | 2.2 | 4.35 | 1.89 | 3.99 | 1.5 | 4.01 | 2.16 | 4.53 | 1.95 | 4.04 | 2.08 | 4.32 | 2.11 | 4.13 | 1.81 | 3.7 | 2.1 | 4.17
CC1=C(SCCC(=O)OC(C[Se]C2=C(C)C(=O)c3ccccc3C2=O)C(=O)NCCCCCC(=O)OCc2ccccc2)C(=O)c2ccccc2C1=O (stereo not given) | 4.68 | 14 | 3.95 | 11.4 | 2.13 | 14.5 | 4.08 | > 100 | 3.96 | 15 | 5.01 | 18.2 | 7.33 | 19.9 | 3.82 | 14 | 4.09 | 13.6 | 8.04 | 20.9
COC(=O)c1ccc(CN2C(=O)C(Cl)=C(Nc3cccc(Cl)c3C)C2=O)cc1 | 15.6 | 51.5 | 37.2 | > 100 | 2.76 | 18.5 | 5.14 | > 100 | 3.51 | 20.8 | 20.2 | 70.3 | 45.3 | > 100 | > 100 | > 100 | 32.4 | > 100 | 13.4 | > 100
O=C(O)c1ccc(C2=Cc3cc(Cl)ccc3OC2)cc1 |  | > 100 |  | > 100 |  | > 100 |  | > 100 |  | > 100 |  | > 100 |  | > 100 |  | > 100 |  | > 100 |  | > 100
CC1/C(=N\O)CC(c2ccccc2)N(C)C1c1ccccc1 (stereo not given) |  | > 100 |  | > 100 |  | > 100 |  | > 100 |  | > 100 |  | > 100 |  | > 100 |  | > 100 |  | > 100 |  | > 100
COC(=O)C1Cc2c(n(C)c3ccccc23)C(CCC(=O)O)N1Cc1ccccc1 (stereo not given) |  | > 100 |  | > 100 |  | > 100 |  | > 100 |  | 91.2 |  | 53.4 |  | 69.9 |  | 97.3 |  | > 100 |  | 77.1
Cc1csc2[n+]1-c1ccccc1N(C(=O)Nc1ccccc1)C(C)C2 (stereo not given) | 17.7 | 35.8 | 36.6 | > 100 | 80.7 | > 100 | 88.5 | > 100 | 61.9 | > 100 | > 100 | > 100 | > 100 | > 100 | > 100 | > 100 | 69.4 | > 100 | 60.4 | > 100
C[N+](C)(C)CC(=O)N/N=C(/C(=O)Nc1ccc(Br)cc1)C1C(=O)NC(=O)NC1=O |  | > 100 |  | > 100 |  | > 100 |  | > 100 |  | > 100 |  | > 100 |  | > 100 |  | > 100 |  | > 100 |  | > 100
O=C(CCCN1CCC(O)(c2ccc(Cl)cc2)CC1)c1ccc(F)cc1 |  | 39.8 |  | > 100 |  | > 100 |  | > 100 |  | 39.5 |  | 45.2 |  | > 100 |  | > 100 |  | 41.1 |  | 21.4
O=C1CC(c2ccccc2)=Nc2ccccc2N1 |  | > 100 |  | > 100 |  | > 100 |  | > 100 |  | > 100 |  | > 100 |  | > 100 |  | > 100 |  | > 100 |  | > 100
O=C(O)[C@H](NS(=O)(=O)c1ccc(F)cc1)c1ccccc1 |  | > 100 |  | > 100 |  | > 100 |  | > 100 |  | > 100 |  | > 100 |  | > 100 |  | > 100 |  | > 100 |  | > 100
CCOC(=O)/C(=C/c1ccc(C(=O)OC)cc1)N(CC)CC |  | > 100 |  | > 100 |  | > 100 |  | > 100 |  | > 100 |  | 60 |  | > 100 |  | > 100 |  | > 100 |  | > 100
Cc1cc2c(cc1Cl)S/C(=C/C(=O)O)C(Nc1ccc3ncsc3c1)=NS2(=O)=O | 8.57 | 22.1 | > 25 | > 62 | 31.9 | > 100 | 5.5 | > 26.8 | 13 | > 67.6 | 14 | 41.2 | > 23.9 | > 74.9 | > 34.3 | > 56.2 | 28.6 | > 63.9 | 33.5 | > 57.7
C=CCN(CCNS(=O)(=O)c1ccc(C)cc1)S(=O)(=O)c1ccc(C)cc1 |  | > 100 |  | > 100 |  | > 100 |  | > 84.5 |  | > 100 |  | > 100 |  | > 100 |  | > 100 |  | > 100 |  | > 100
CCC(C)Nc1ccc(N)cc1 (stereo not given) | 3.89 | 14.3 | 4.7 | 48.5 | 4.79 | 20.5 | 4.29 | 12.4 | 3.07 | 9.07 | 2.28 | 5.54 | 5.61 | 19.2 | 8.42 | 52.5 | 3.64 | 13 | 2.91 | 12.5
COc1cc(/C=C/C(=O)/C=C/c2ccc(-n3ccnc3C)cc2)ccc1O | 2.11 | 5.21 | 3.22 | > 100 | 2.04 | 5.12 | 4.05 | > 100 | 5.26 | 24.9 | 2.85 | 8.41 | 2.9 | 12.1 | 4.62 | 86.3 | 2.31 | 6.4 | 4.49 | 21.3
Nc1nc([Se])c2ncn(C3OC(CO)C(O)C3O)c2n1 (stereo not given) | 17.2 | > 100 | 25.1 | > 100 | 25.9 | > 100 | 3.4 | > 100 | 42.5 | > 100 | 17.4 | 68.8 | 9.27 | > 100 | > 100 | > 100 | 73.3 | > 100 | 4.16 | > 100
O=C(CSc1nc(-c2ccccc2)c(-c2ccccc2)[nH]1)N/N=C/c1ccc(O)cc1 |  | 54.8 |  | 69.5 |  | 95.7 |  | 70.1 |  | 48.6 |  | 48.4 |  | 88.5 |  | > 100 |  | 49 |  | 54.9
